# Tests used:
# [1] = system: TORC1 (p4EBP1 and pS6) and TORC2 (pPRAS40); test: Human skin immunohistochemistry assay (skin biopsies, pathway inhibition); format: in vivo; conditions: 6 mg QD, read-out: PD (% inhibition, H score) Skin: 4EBP1/PRAS40
# Experimental: Human Skin Immunohistochemistry Assay.
# Skin tissue was fixed in 10% neutral-buffered formalin solution for 24 hours and then processed and embedded in paraffin block. Sections (4 μm) were cut and mounted onto microscopic slides. Sections were incubated with primary antibodies (p4EBP1, pS6, or pRAS40) overnight and developed using a chromogenic substrate.
# Pharmacodynamic (PD) endpoints were evaluated in surrogate (peripheral blood cells [PBCs], skin) and tumor tissues for the phosphorylation of TORC1-dependent markers (4EBP1/S6), and TORC2-dependent markers (AKT/PRAS40). 50 patients were treated in 3 intermittent dosing regimens; 21 in 6 cohorts ranging 7-40 mg QW, 20 in 5 cohorts ranging 6-20 mg QD×3d QW, and 9 in 3 cohorts ranging 7-13 mg QD×5d QW. […] The MTD for intermittent dosing was not reached. All adverse events (AEs) reported were reversible. The most common (≧20%, n=35) AEs considered possibly related to compound A reported in all 3 dosing regimens included nausea (51%), hyperglycemia (37%), mucosal inflammation (29%), rash (23%), asthenia (23%), vomiting (26%), and diarrhea (20%). The majority of AEs considered possibly related to compound A in any regimen were Grade 1 or 2. The only reported Grade≧3 AE (≧5%) possibly related to compound A in 3 regimens was lymphopenia (6%). Tables 4-9 show summaries of observed adverse events for various treatment regimens of the invention.
# [2] = Additional study: grade 3 or greater treatment-emergent adverse events (Table 10); format: in vivo, human
structure (smiles),measurement,setting,value
CC(C)n1nc(-c2ccc3oc(N)nc3c2)c2c(N)ncnc21 [compound A],inhibition at 6 mg,[1],60%
same,"Anaemia, grade 3 or greater TEAE",[2]; Total (N = 91),6 (7%)
same,"Aspartate aminotransferase increase, grade 3 or greater TEAE",[2]; Total (N = 91),2 (2%)
same,"Asthenia, grade 3 or greater TEAE",[2]; Total (N = 91),4 (4%)
same,"Blood creatinine increase, grade 3 or greater TEAE",[2]; Total (N = 91),2 (2%)
same,"Deep vein thrombosis, grade 3 or greater TEAE",[2]; Total (N = 91),2 (2%)
same,"Diarrhoea, grade 3 or greater TEAE",[2]; Total (N = 91),3 (3%)
same,"Disease progression, grade 3 or greater TEAE",[2]; Total (N = 91),2 (2%)
same,"Fatigue, grade 3 or greater TEAE",[2]; Total (N = 91),3 (3%)
same,"Gamma-glutamyltransferase increase, grade 3 or greater TEAE",[2]; Total (N = 91),3 (3%)
same,"Hyperglycaemia, grade 3 or greater TEAE",[2]; Total (N = 91),9 (10%)
same,"Hypokalaemia, grade 3 or greater TEAE",[2]; Total (N = 91),3 (3%)
same,"Hyponatraemia, grade 3 or greater TEAE",[2]; Total (N = 91),2 (2%)
same,"Hypophsphataemia, grade 3 or greater TEAE",[2]; Total (N = 91),5 (5%)
same,"Lymphopenia, grade 3 or greater TEAE",[2]; Total (N = 91),6 (7%)
same,"Mucosal Inflammation, grade 3 or greater TEAE",[2]; Total (N = 91),7 (8%)
same,"Muscular weakness, grade 3 or greater TEAE",[2]; Total (N = 91),2 (2%)
same,"Nausea, grade 3 or greater TEAE",[2]; Total (N = 91),2 (2%)
same,"Neutropenia, grade 3 or greater TEAE",[2]; Total (N = 91),2 (2%)
same,"Pruritus, grade 3 or greater TEAE",[2]; Total (N = 91),3 (3%)
same,"Rash, grade 3 or greater TEAE",[2]; Total (N = 91),9 (10%)
same,"Thrombocytopenia, grade 3 or greater TEAE",[2]; Total (N = 91),2 (2%)
same,"Vomiting, grade 3 or greater TEAE",[2]; Total (N = 91),3 (3%)
same,"Anaemia, grade 3 or greater TEAE",[2]; Total QD Dosing (N = 29),1 (3%)
same,"Aspartate aminotransferase increase, grade 3 or greater TEAE",[2]; Total QD Dosing (N = 29),0 (0%)
same,"Asthenia, grade 3 or greater TEAE",[2]; Total QD Dosing (N = 29),1 (3%)
same,"Blood creatinine increase, grade 3 or greater TEAE",[2]; Total QD Dosing (N = 29),0 (0%)
same,"Deep vein thrombosis, grade 3 or greater TEAE",[2]; Total QD Dosing (N = 29),0 (0%)
same,"Diarrhoea, grade 3 or greater TEAE",[2]; Total QD Dosing (N = 29),1 (3%)
same,"Disease progression, grade 3 or greater TEAE",[2]; Total QD Dosing (N = 29),0 (0%)
same,"Fatigue, grade 3 or greater TEAE",[2]; Total QD Dosing (N = 29),0 (0%)
same,"Gamma-glutamyltransferase increase, grade 3 or greater TEAE",[2]; Total QD Dosing (N = 29),0 (0%)
same,"Hyperglycaemia, grade 3 or greater TEAE",[2]; Total QD Dosing (N = 29),4 (14%)
same,"Hypokalaemia, grade 3 or greater TEAE",[2]; Total QD Dosing (N = 29),2 (7%)
same,"Hyponatraemia, grade 3 or greater TEAE",[2]; Total QD Dosing (N = 29),2 (7%)
same,"Hypophsphataemia, grade 3 or greater TEAE",[2]; Total QD Dosing (N = 29),0 (0%)
same,"Lymphopenia, grade 3 or greater TEAE",[2]; Total QD Dosing (N = 29),2 (7%)
same,"Mucosal Inflammation, grade 3 or greater TEAE",[2]; Total QD Dosing (N = 29),0 (0%)
same,"Muscular weakness, grade 3 or greater TEAE",[2]; Total QD Dosing (N = 29),0 (0%)
same,"Nausea, grade 3 or greater TEAE",[2]; Total QD Dosing (N = 29),0 (0%)
same,"Neutropenia, grade 3 or greater TEAE",[2]; Total QD Dosing (N = 29),0 (0%)
same,"Pruritus, grade 3 or greater TEAE",[2]; Total QD Dosing (N = 29),2 (7%)
same,"Rash, grade 3 or greater TEAE",[2]; Total QD Dosing (N = 29),7 (24%)
same,"Thrombocytopenia, grade 3 or greater TEAE",[2]; Total QD Dosing (N = 29),2 (7%)
same,"Vomiting, grade 3 or greater TEAE",[2]; Total QD Dosing (N = 29),0 (0%)
same,"Anaemia, grade 3 or greater TEAE",[2]; Total QDx3d QW (N = 25),2 (8%)
same,"Aspartate aminotransferase increase, grade 3 or greater TEAE",[2]; Total QDx3d QW (N = 25),0 (0%)
same,"Asthenia, grade 3 or greater TEAE",[2]; Total QDx3d QW (N = 25),1 (4%)
same,"Blood creatinine increase, grade 3 or greater TEAE",[2]; Total QDx3d QW (N = 25),2 (8%)
same,"Deep vein thrombosis, grade 3 or greater TEAE",[2]; Total QDx3d QW (N = 25),1 (4%)
same,"Diarrhoea, grade 3 or greater TEAE",[2]; Total QDx3d QW (N = 25),1 (4%)
same,"Disease progression, grade 3 or greater TEAE",[2]; Total QDx3d QW (N = 25),0 (0%)
same,"Fatigue, grade 3 or greater TEAE",[2]; Total QDx3d QW (N = 25),0 (0%)
same,"Gamma-glutamyltransferase increase, grade 3 or greater TEAE",[2]; Total QDx3d QW (N = 25),1 (4%)
same,"Hyperglycaemia, grade 3 or greater TEAE",[2]; Total QDx3d QW (N = 25),4 (16%)
same,"Hypokalaemia, grade 3 or greater TEAE",[2]; Total QDx3d QW (N = 25),0 (0%)
same,"Hyponatraemia, grade 3 or greater TEAE",[2]; Total QDx3d QW (N = 25),0 (0%)
same,"Hypophsphataemia, grade 3 or greater TEAE",[2]; Total QDx3d QW (N = 25),3 (12%)
same,"Lymphopenia, grade 3 or greater TEAE",[2]; Total QDx3d QW (N = 25),2 (8%)
same,"Mucosal Inflammation, grade 3 or greater TEAE",[2]; Total QDx3d QW (N = 25),4 (16%)
same,"Muscular weakness, grade 3 or greater TEAE",[2]; Total QDx3d QW (N = 25),1 (4%)
same,"Nausea, grade 3 or greater TEAE",[2]; Total QDx3d QW (N = 25),1 (4%)
same,"Neutropenia, grade 3 or greater TEAE",[2]; Total QDx3d QW (N = 25),0 (0%)
same,"Pruritus, grade 3 or greater TEAE",[2]; Total QDx3d QW (N = 25),1 (4%)
same,"Rash, grade 3 or greater TEAE",[2]; Total QDx3d QW (N = 25),1 (4%)
same,"Thrombocytopenia, grade 3 or greater TEAE",[2]; Total QDx3d QW (N = 25),0 (0%)
same,"Vomiting, grade 3 or greater TEAE",[2]; Total QDx3d QW (N = 25),1 (4%)
same,"Anaemia, grade 3 or greater TEAE",[2]; Total QDx5d QW (N = 15),1 (7%)
same,"Aspartate aminotransferase increase, grade 3 or greater TEAE",[2]; Total QDx5d QW (N = 15),1 (7%)
same,"Asthenia, grade 3 or greater TEAE",[2]; Total QDx5d QW (N = 15),1 (7%)
same,"Blood creatinine increase, grade 3 or greater TEAE",[2]; Total QDx5d QW (N = 15),0 (0%)
same,"Deep vein thrombosis, grade 3 or greater TEAE",[2]; Total QDx5d QW (N = 15),0 (0%)
same,"Diarrhoea, grade 3 or greater TEAE",[2]; Total QDx5d QW (N = 15),0 (0%)
same,"Disease progression, grade 3 or greater TEAE",[2]; Total QDx5d QW (N = 15),0 (0%)
same,"Fatigue, grade 3 or greater TEAE",[2]; Total QDx5d QW (N = 15),2 (13%)
same,"Gamma-glutamyltransferase increase, grade 3 or greater TEAE",[2]; Total QDx5d QW (N = 15),1 (7%)
same,"Hyperglycaemia, grade 3 or greater TEAE",[2]; Total QDx5d QW (N = 15),1 (7%)
same,"Hypokalaemia, grade 3 or greater TEAE",[2]; Total QDx5d QW (N = 15),0 (0%)
same,"Hyponatraemia, grade 3 or greater TEAE",[2]; Total QDx5d QW (N = 15),0 (0%)
same,"Hypophsphataemia, grade 3 or greater TEAE",[2]; Total QDx5d QW (N = 15),2 (13%)
same,"Lymphopenia, grade 3 or greater TEAE",[2]; Total QDx5d QW (N = 15),1 (7%)
same,"Mucosal Inflammation, grade 3 or greater TEAE",[2]; Total QDx5d QW (N = 15),3 (20%)
same,"Muscular weakness, grade 3 or greater TEAE",[2]; Total QDx5d QW (N = 15),0 (0%)
same,"Nausea, grade 3 or greater TEAE",[2]; Total QDx5d QW (N = 15),1 (7%)
same,"Neutropenia, grade 3 or greater TEAE",[2]; Total QDx5d QW (N = 15),1 (7%)
same,"Pruritus, grade 3 or greater TEAE",[2]; Total QDx5d QW (N = 15),0 (0%)
same,"Rash, grade 3 or greater TEAE",[2]; Total QDx5d QW (N = 15),1 (7%)
same,"Thrombocytopenia, grade 3 or greater TEAE",[2]; Total QDx5d QW (N = 15),0 (0%)
same,"Vomiting, grade 3 or greater TEAE",[2]; Total QDx5d QW (N = 15),1 (7%)
same,"Anaemia, grade 3 or greater TEAE",[2]; Total QW Dosing (N = 22),2 (9%)
same,"Aspartate aminotransferase increase, grade 3 or greater TEAE",[2]; Total QW Dosing (N = 22),1 (5%)
same,"Asthenia, grade 3 or greater TEAE",[2]; Total QW Dosing (N = 22),1 (5%)
same,"Blood creatinine increase, grade 3 or greater TEAE",[2]; Total QW Dosing (N = 22),0 (0%)
same,"Deep vein thrombosis, grade 3 or greater TEAE",[2]; Total QW Dosing (N = 22),1 (5%)
same,"Diarrhoea, grade 3 or greater TEAE",[2]; Total QW Dosing (N = 22),1 (5%)
same,"Disease progression, grade 3 or greater TEAE",[2]; Total QW Dosing (N = 22),2 (9%)
same,"Fatigue, grade 3 or greater TEAE",[2]; Total QW Dosing (N = 22),1 (5%)
same,"Gamma-glutamyltransferase increase, grade 3 or greater TEAE",[2]; Total QW Dosing (N = 22),1 (5%)
same,"Hyperglycaemia, grade 3 or greater TEAE",[2]; Total QW Dosing (N = 22),0 (0%)
same,"Hypokalaemia, grade 3 or greater TEAE",[2]; Total QW Dosing (N = 22),1 (5%)
same,"Hyponatraemia, grade 3 or greater TEAE",[2]; Total QW Dosing (N = 22),0 (0%)
same,"Hypophsphataemia, grade 3 or greater TEAE",[2]; Total QW Dosing (N = 22),0 (0%)
same,"Lymphopenia, grade 3 or greater TEAE",[2]; Total QW Dosing (N = 22),1 (5%)
same,"Mucosal Inflammation, grade 3 or greater TEAE",[2]; Total QW Dosing (N = 22),0 (0%)
same,"Muscular weakness, grade 3 or greater TEAE",[2]; Total QW Dosing (N = 22),1 (5%)
same,"Nausea, grade 3 or greater TEAE",[2]; Total QW Dosing (N = 22),0 (0%)
same,"Neutropenia, grade 3 or greater TEAE",[2]; Total QW Dosing (N = 22),1 (5%)
same,"Pruritus, grade 3 or greater TEAE",[2]; Total QW Dosing (N = 22),0 (0%)
same,"Rash, grade 3 or greater TEAE",[2]; Total QW Dosing (N = 22),0 (0%)
same,"Thrombocytopenia, grade 3 or greater TEAE",[2]; Total QW Dosing (N = 22),0 (0%)
same,"Vomiting, grade 3 or greater TEAE",[2]; Total QW Dosing (N = 22),1 (5%)
